Measurements from article PMC11957373 (Organic & biomolecular chemistry, 2024).

Assays:
[1] = molecular target: HIV-1 protease (Human immunodeficiency virus type 1 group M subtype B, UniProt P04585); experiment: HIV-1 protease inhibition, spectrofluorometric assay; assay type: biochemical; conditions: for Ki: HIV-1 protease
[2] = system: HIVLAI; experiment: Cell-based antiviral assay in MT-2 human-T-lymphoid cells exposed to HIVLAI; set-up: species or system HIV-1; conditions: for antiviral activity (in words): MT-2 cells exposed to HIVLAI
[3] = at least 5 data points, standard error less than 7%

## C=CCC1OC(C)CC1OC(=O)NC(Cc1ccccc1)C(O)CN(CC(C)C)S(=O)(=O)c1ccc(OC)cc1 [4a, (2S,3S,5R)-2-allyl-5-methyltetrahydrofuran-3-yl.((2S,3R)-3-hydroxy-4-((N-isobutyl-4-methoxyphenyl)sulfonamido)-1-phenylbutan-2-yl)carbamate]
[1]; [3]
  Ki: 400 pM
[2]
  antiviral activity (in words): did not exhibit any appreciable antiviral activity

## COC[C@@H]1O[C@H](C)C[C@@H]1OC(=O)N[C@@H](Cc1ccccc1)[C@H](O)CN(CC(C)C)S(=O)(=O)c1ccc(N)cc1 [4d, (2S,3S,5R)-2-(methoxymethyl)-5-methyltetrahydrofuran-3-yl((2S,3R)-4-((4-amino-N-isobutylphenyl)sulfonamido)-3-hydroxy-1-phenylbutan-2-yl)carbamate]
[1]; relative to compound 4c
  fold reduction of protease inhibitory activity over compound 4c: over 300 fold

## COC[C@H]1O[C@@H](C)C[C@H]1OC(=O)N[C@@H](Cc1ccccc1)[C@H](O)CN(CC(C)C)S(=O)(=O)c1ccc(OC)cc1 [4e, (2R,3R,5S)-2-(methoxymethyl)-5-methyltetrahydrofuran-3-yl.((2S,3R)-3-hydroxy-4-((N-isobutyl-4-methoxyphenyl)sulfonamido)-1-phenylbutan-2-yl)carbamate]
[1]; relative to compound 4c
  fold reduction of protease inhibitory activity over compound 4c: ~4 fold

## COC[C@H]1O[C@H](C)C[C@@H]1OC(=O)N[C@@H](Cc1ccccc1)[C@H](O)CN(CC(C)C)S(=O)(=O)c1ccc(OC)cc1 [4h, (2R,3S,5R)-2-(methoxymethyl)-5-methyltetrahydrofuran-3-yl((2S,3R)-3-hydroxy-4-((N-isobutyl-4-methoxyphenyl)sulfonamido)-1-phenylbutan-2-yl)carbamate]
[1]; value printed in pM
  Ki: 49 pM
[1]; relative to compound 4c
  fold improvement of enzyme affinity compared to compound 4c: over 5 fold

## COc1ccc(S(=O)(=O)N(CC(C)C)C[C@@H](O)[C@H](Cc2ccccc2)NC(=O)O[C@H]2C[C@@H](C)O[C@H]2[C@@H]2CCCO2)cc1 [4k, (2S,2’S,3S,5R)-5-methyloctahydro-[2,2’-bifuran]-3-yl((2S,3R)-3-hydroxy-4-((N-isobutyl-4-methoxyphenyl)sulfonamido)-1-phenylbutan-2-yl)carbamate]
[1]; [3]
  Ki: 310 pM
[2]
  antiviral activity (in words): did not exhibit any appreciable antiviral activity

## COc1ccc(S(=O)(=O)N(CC(C)C)C[C@@H](O)[C@H](Cc2ccccc2)NC(=O)O[C@H]2C[C@@H](C)O[C@H]2[C@H]2CCCO2)cc1 [4l, (2S,2’R,3S,5R)-5-methyloctahydro-[2,2’-bifuran]-3-yl((2S,3R)-3-hydroxy-4-((N-isobutyl-4-methoxyphenyl)sulfonamido)-1-phenylbutan-2-yl)carbamate]
[1]; value printed in pM
  Ki: 44 pM
[2]
  antiviral activity (in words): did not exhibit any appreciable antiviral activity

## CC(C)CN(C[C@@H](O)[C@H](Cc1ccccc1)NC(=O)O[C@H]1CO[C@H]2OCC[C@H]21)S(=O)(=O)c1ccc(N)cc1 [Darunavir, darunavir, reference compound]
[2]; Human immunodeficiency virus 1, MT2
  EC50: 1600 pM
